The text below walks through data of US12655101B2, “Small molecules with antibacterial activity” (NEW MEXICO TECH UNIVERSITY RESEARCH PARK CORPORATION, priority 2021, dated 2026).

The IC50 is the midpoint of a concentration-inhibition curve. As a reminder, the MIC is the least concentration at which growth counts as inhibited.

The test system of assay [1] is A. baumannii. The assay is described as follows: Synergy with PME (Table 7). The format is cell-based.
The subject of assay [2] is A. baumannii ATCC BAA-1797. The assay is described as follows: Colony counts of A. baumannii ATCC BAA-1797 treated with 4xMIC for 16 hours. The format is cell-based. To be noted: for kill of A. baumannii ATCC BAA-1797: 4xMIC (24 μM Compound 25, 24 μM Compound 26, 100 μM Compound 27, 48 μM Compound 14, 100 μM Compound 15).
Assay [3] concerns HeLa cells. The assay is described as follows: HeLa cell toxicity IC50 (MTT). The format is cell-based. Particulars: Homo sapiens.
In assay [4] the test system is RecA-GFP fusion protein in E. coli MG1655. In words: Inhibition of norfloxacin-triggered RecA-GFP induction in E. coli MG1655. The assay is classed as cell-based. Here is the method: An increase in DNA damage-induced RecA protein expression is required for identification and repair of DNA lesions. LexA-repressed transcription of a norfloxacin-triggered SOS response was measured by detecting an increase in RecA-GFP fusion protein fluorescence in an E. coli recombinant model. The compounds of the disclosure inhibited RecA-GFP induction and presumably, the concurrent SOS response. Inhibition of RecA-GFP expression correlated with an increase in cell death, most likely as a result of ALD activation. Sub-potent concentrations of Polymixin E were used to facilitate entry of the compounds into cells.
E. coli MG1655 was grown from a glycerol stock by placing a small volume of cells onto a MHA plate. The MHA plate was incubated overnight at 37° C. A single colony was subsequently used to inoculate MHB+10 μg/mL kanamycin to obtain a bacterial broth suspension. This was grown in at 37° C. on a rotary shaking incubator (100 rpm) for 12 hours. The bacterial cell concentration was adjusted to ˜5×10^5 colony forming units per milliliter (CFU/mL) in MHB using optical density at 595 nm. Treated cells with polymyxin E (PME) or norfloxacin (in μg/ml) at indicated concentrations for 30 minutes at 37° C. and then added a compound of the disclosure at indicated micromolar concentrations. Incubated for 3.5 hours at 37° C. Cell samples were read on the flow cytometer to detect (green fluorescent) RLU RecA expression and/or shutdown.
E. coli MG1655 was grown from a glycerol stock by placing a small volume of cells onto a MHA plate. The MHA plate was incubated overnight at 37° C. A single colony was subsequently used to inoculate MHB+10 μg/mL kanamycin to obtain a bacterial broth suspension. The MHB broth suspension was grown at 37° C. on a rotary shaking incubator (100 rpm) for 12 hours. The bacterial cell concentration was adjusted to ˜5×10^5 CFU/mL in MHB using OD at 595 nm.
Cells were treated with 0.03 μg/mL and 0.06 μg/mL norfloxacin for 30 minutes at 37° C. Then, 100 μM of the compounds were added. The cells were incubated for 3.5 hours at 37° C. 200 μL aliquots were removed and read by a flow cytometer to detect RecA production and/or shutdown. The cells were incubated for an additional 18 hours at 37° C. to assess overall toxicity.

The subject of assay [5] is HeLa cells. The assay is described as follows: HeLa cell toxicity IC50 (MTT). The assay is classed as cell-based. Particulars: Homo sapiens, 10% FBS. As for the experimental part: HeLa cells: HeLa cells were trypsinized and counted in number of cells/mL using a hemocytometer. Cells were then plated at 4×10^3 HeLa cells/100 μL in tissue culture-treated 96-well plates in DMEM+1% penicillin/streptomycin (P/S)+10% FBS. HeLa cells were treated with 100 μM of a compound of interest and serially diluted two-fold. Samples were also prepared with no treatment, 1% DMSO, and 100 μM PAO. The cells were incubated for 48 hours at 37° C. in a humidified incubator with 5% CO2. 10% v/v MTT reagent (5 mg/mL stock) was added to each sample, and the samples were incubated for 2 hours before removing the supernatant and solubilizing the samples in 100 μL DMSO. OD readings were obtained at 595 nm. IC50 values were reported.

Assay [6] relates to A. baumannii ATCC 1515. In words: Membrane depolarization detected by DiOC2(3). The format is cell-based. Particulars: 1xMIC; for cell membrane depolarization: 20 μM CCCP, 25 minutes; for cell membrane depolarization over time: 10, 20, 30, and 50 minutes.
Assay [7] concerns A. baumannii ATCC 15151. The assay is described as follows: MIC on A. baumannii ATCC 15151. The assay is classed as cell-based. Particulars: Acinetobacter baumannii, ATCC15151; A. baumannii ATCC 15151 (heading of Example 9).
Assay [8] deals with MRSA ATCC BAA-44. The assay is described as follows: MIC on MRSA ATCC BAA-44. The assay is classed as cell-based, S. aureus. Particulars: for MIC: Staphylococcus aureus. As for the experimental part:
MRSA BAA-44: MRSA ATCC BAA-44 was grown from a glycerol stock by placing a small volume of cells onto a Mueller-Hinton agar plate (MHA). The MHA plate was incubated overnight at 37° C. A single colony was used to inoculate Mueller-Hinton broth (MHB) to obtain a bacterial broth suspension. The MHB broth suspension was grown at 37° C. on a rotary shaking incubator (100 rpm) for 12 hours. The bacterial cell concentration was adjusted to ˜5×10^5 colony forming units per milliliter (CFU/mL) in MHB−/+10, 20, or 40% FBS using optical density (OD) at 595 nm. 500 μL aliquots of the adjusted bacterial cell suspension were placed into borosilicate glass tubes. The cell suspensions were treated with 100 μM compound of interest and serially diluted two-fold. The culture tubes were incubated for 18 hours at 37° C. Efficacy was either assessed visually or by adding 10% v/v MTT (5 mg/mL stock) after the 18 hour incubation period, where the cell suspensions were subsequently incubated for 10 minutes to allow the MTT reagent to carry out the colorimetric reaction.

[9] abbreviates: HeLa, read-out: IC50 on HeLa in 40% FBS, Table 7.
Where [10] appears, read: read-out: IC50 40% FBS, HeLa cells.
[11] abbreviates: HeLa, Table 7, read-out: IC50 on HeLa in 10% FBS.
The mark [12] stands for this setting: HeLa cells, read-out: IC50 10% FBS.
The mark [13] stands for this setting: 18 h, read-out: MIC in the presence of 40% FBS, MRSA ATCC BAA-44, 40% FBS.
Setting [14] is: MRSA ATCC BAA-44, absence of serum, read-out: MIC in the absence of serum.
Setting [15] is: MRSA ATCC BAA-44, serum not stated, read-out: MIC.
The mark [16] stands for this setting: no serum (note in the cell), read-out: MIC (μM) in MRSA BAA-44.

SMILES strings stand for the structures. Converted amounts (≈) assume the structure as drawn. Like-named read-outs stand apart in the source and are kept apart here. A value given as a limit tells only on which side of the number the result lay.

In the case of `Nc1cccc2[nH]cc(/C=N/Nc3ccc(Cl)cc3)c12` [Compound 14, (E)-3-((2-(4-chlorophenyl)hydrazineylidene)methyl)-1H-indol-4-amine], the “Synergize with PME?” value in assay [1] is on record as “Yes, at 4 μM”. Also, in assay [2], the “Kill at 4X MIC at 16 hours” value is 5-logs. The “kill of A. baumannii ATCC BAA-1797” value in assay [2] was ~5 orders of magnitude. Further, the IC50 amounted to 183 µM in assay [3] (setting [9]), 183 µM in assay [3] (setting [10]), 36.7 ± 3.8 µM in assay [5] (setting [11]) and 36.7 ± 3.8 µM in assay [5] (setting [12]). Further, in assay [4], the “RecA attenuation with norflox on E. coli” value was “Yes”. For the same molecule, the cell membrane depolarization result in assay [6] is given as “depolarized the cell membrane”. Moreover, the MIC in assay [7] was 6 µM (≈ 1.71 µg/mL); in assay [8] (setting [13]), 100 µM; in assay [8] (setting [14]), 50 µM (≈ 14.2 µg/mL); in assay [8] (setting [15]), 50 to 100 µM (≈ 14.2 to 28.5 µg/mL). Further, the “toxicity to MRSA BAA-44” value in assay [8] (absence of serum) is “toxic”.

On to `Clc1ccc(N/N=C/c2c[nH]c3ccc(Br)cc23)cc1` [Compound 15, (E)-5-bromo-3-((2-(4-chlorophenyl)hydrazineylidene)methyl)-1H-indole], for which the “Kill at 4X MIC at 16 hours” value in assay [2] is given as 6-logs. In assay [2], the “kill of A. baumannii ATCC BAA-1797” value is recorded as ~5 orders of magnitude. For the same molecule, the IC50 is 67.4 µM in assay [3] (setting [9]), 67.4 µM in assay [3] (setting [10]), 20.9 ± 1.5 µM in assay [5] (setting [11]) and 20.9 ± 1.5 µM in assay [5] (setting [12]). Further, the “RecA attenuation with norflox on E. coli” value in assay [4] is “Yes”. The “cell membrane depolarization over time” value in assay [6] was “caused the most depolarization”. The MIC in assay [7] was 12.5 µM (≈ 4.36 µg/mL); in assay [8] (setting [13]), more than 100 µM; in assay [8] (setting [14]), 50 µM (≈ 17.4 µg/mL).

As for `Brc1ccc(N/N=C/c2c[nH]c3cccc(OCc4ccccc4)c23)cc1.Cl` [Compound 25, (E)-2-((4-(benzyloxy)-1H-indol-3-yl)methylene)-1-(4-bromophenyl)hydrazin-1-ium chloride], the “Synergize with PME?” value in assay [1] is reported as “Yes, at 1 μM”. Besides, the “Kill at 4X MIC at 16 hours” value in assay [2] is listed as 5-logs. Further, the “kill of A. baumannii ATCC BAA-1797” value in assay [2] was ~5 orders of magnitude. Further, the IC50 in assay [3] (setting [9]) is 101 µM; in assay [3] (setting [10]), 101 µM; in assay [5] (setting [11]), 30.4 ± 3.3 µM; in assay [5] (setting [12]), 30.4 ± 3.3 µM. The “RecA attenuation with norflox on E. coli” value in assay [4] was “Yes”. Besides, the cell membrane depolarization result in assay [6] is “depolarized the cell membrane”. Further, the “cell membrane depolarization over time” value in assay [6] is “depolarized the membrane the least”. The MIC was 3 µM in assay [7], 25 µM in assay [8] (setting [15]) and 50 µM in assay [8] (setting [16]).

For `Cl.Clc1ccc(N/N=C/c2c[nH]c3cccc(OCc4ccccc4)c23)cc1` [Compound 26, (E)-2-((4-(benzyloxy)-1H-indol-3-yl)methylene)-1-(4-chlorophenyl)hydrazin-1-ium], in assay [1], the “Synergize with PME?” value is “Yes, at 1 μM”. In addition, the “Kill at 4X MIC at 16 hours” value in assay [2] is 5-logs. Further, the “kill of A. baumannii ATCC BAA-1797” value in assay [2] is recorded as ~5 orders of magnitude. Moreover, the IC50 in assay [3] (setting [9]) came to 58.2 µM; in assay [3] (setting [10]), 58.2 µM; in assay [5] (setting [11]), 37.3 ± 1.8 µM; in assay [5] (setting [12]), 37.3 ± 1.8 µM. Besides, the “RecA attenuation with norflox on E. coli” value in assay [4] is “Yes”. In addition, the cell membrane depolarization entry in assay [6] is “depolarized the cell membrane”. Also, the values for the MIC in assay [7], in assay [8] (setting [15]) and in assay [8] (setting [16]) were 3 µM, 25 µM and 50 µM, respectively.

For the molecule `Cl.Fc1ccc(N/N=C/c2c[nH]c3cccc(OCc4ccccc4)c23)cc1` [Compound 27, (E)-2-((4-(benzyloxy)-1H-indol-3-yl)methylene)-1-(4-fluorophenyl)hydrazin-1-ium], the “Synergize with PME?” value in assay [1] is on record as “Yes, at 6 μM”. The “Kill at 4X MIC at 16 hours” value in assay [2] is given as 5-logs. The “kill of A. baumannii ATCC BAA-1797” value in assay [2] is recorded as ~5 orders of magnitude. Moreover, the IC50 in assay [3] (setting [9]) was 69.7 µM; in assay [3] (setting [10]), 69.7 µM; in assay [5] (setting [11]) it was 25.8 ± 5.2 µM; in assay [5] (setting [12]), 25.8 ± 5.2 µM. For the same molecule, the “RecA attenuation with norflox on E. coli” value in assay [4] is recorded as “Yes”. Also, the “cell membrane depolarization over time” value in assay [6] is given as “caused the most depolarization”. Moreover, the values for the MIC in assay [7], in assay [8] (setting [15]) and in assay [8] (setting [16]) were 12.5 µM, 100 µM and 100 µM, respectively.
